Test results reported in patent publication US20120010179A1, “Methods of using a thiazole derivative” (priority 2006, published 2012).

Columns and labels:
[1] = tested on: patients with COPD; assay: Pharmacodynamic and safety assessments (ECG, vital signs, serum potassium, adverse events, laboratory), Example 1; format: in vivo, human
Protocol: (§1) Twelve-lead electrocardiograms (ECGs) were conducted after the subject had been resting and supine for ≧3 minutes. In addition to screening and pre-treatment baseline (Day 0) measurements, ECGs were also recorded at specific times during the treatment period. All 12-lead ECG monitors used for this study were calibrated and standardized. The ventricular rate, PR interval (the time elapsing between the beginning of the P wave and the beginning of the QRS interval in an electrocardiogram, corresponding to the electrical activity through the atria), QRS interval (the movement of electrical impulses through the ventricles), QT/QTc interval (the QT interval measures the time between the start of the Q wave and the end of the T wave in the heart's electrical cycle; QTc is a corrected QT interval, as determined by Fridericia's formula [QTcF] and Bazett's formula [QTcB]), and the overall ECG interpretation (normal or abnormal) were documented. Measurements were recorded prior to collection of any blood samples, where applicable. At least three original copies of each ECG (one each for the site, for the sponsor, and for the central ECG provider) were made. […]
(§2) Vital signs (heart rate and systolic blood pressure) were measured after the subject had been sitting for ≧3 minutes. […] Measurements were recorded prior to the collection of any blood samples, where applicable. […]

[2] = tested on: patients with COPD; assay: Pharmacodynamic and safety assessments (ECG, vital signs, serum potassium, adverse events, laboratory), Example 2; format: in vivo, human
Protocol: as §1, §2

**Q.** What does the source list for `CCOc1ccc(-c2nc(-c3cccc(C(=O)O)n3)cs2)cc1OCC` [Tetomilast, 2-(3,4-diethoxyphenyl)-4-(2-carboxy-6-pyridyl)thiazole]?
**A.** differences in adverse events, serum chemistry, hematology, or urinalysis versus placebo ([1]; oral tetomilast with inhaled albuterol): no clinically meaningful differences; changes in heart rate, systolic blood pressure, serum potassium, or QT interval versus placebo ([1]; oral tetomilast with relatively high doses of inhaled albuterol): No clinically meaningful changes; changes in heart rate, systolic blood pressure, serum potassium, or QT interval versus placebo ([2]; oral tetomilast in combination with Advair Diskus 250/50): No clinically meaningful changes; differences in adverse events, serum chemistry, hematology, or urinalysis versus placebo ([2]; oral tetomilast with inhaled Advair Diskus 250/50): no clinically meaningful differences
